Measured values from ChEMBL document CHEMBL1129228, “Naphtho-fused azepines as potent growth hormone secretagogues” (Bioorg Med Chem Lett, 1997).
Square brackets hold non-standard residues; d marks the D form. Peptide text beside a SMILES is read from it. ξ: configuration not given here. 1Nal = N[C@@H](Cc1cccc2ccccc12)C(=O)O; ξ1Nal = NC(Cc1cccc2ccccc12)C(=O)O; 3Amb = NCc1cccc(C(=O)O)c1

Organism: Rattus norvegicus
Assay: Compound was evaluated for its potency using rat pituitary cell assay
Type: functional
Details: Pituitary gland cell, read-out: ED50 (the source's name)

EC50 [nM]	SMILES
37	Cc1nnc(-c2cscc2-c2ccc(CN3C(=O)[C@H](NC(=O)CC(C)(C)N)CCc4c3ccc3ccccc43)cc2)o1
4	CC(C)(N)CC(=O)N[C@@H]1CCc2c(ccc3ccccc23)N(Cc2ccc(-c3ccccc3-c3nn[nH]n3)cc2)C1=O
30	CC(C)(N)C(=O)N[C@@H]1CCc2ccccc2N(Cc2ccc(-c3ccccc3-c3nn[nH]n3)cc2)C1=O
1000	CC(C)(N)CC(=O)N[C@@H]1CCc2ccccc2N(Cc2ccccc2)C1=O
1700	CC(C)(N)CC(=O)N[C@@H]1CCc2ccccc2N(Cc2ccc(-c3ccccc3)cc2)C1=O
125	CC(C)(N)CC(=O)N[C@@H]1CCc2ccccc2N(Cc2ccc(-c3ccccc3-c3nn[nH]n3)cc2)C1=O
8500	CC(C)(N)CC(=O)N[C@@H]1CCc2c(ccc3ccccc23)N(Cc2ccccc2)C1=O
175	NC1(C(=O)N[C@@H]2CCc3c(ccc4ccccc34)N(Cc3ccc(-c4ccccc4-c4nn[nH]n4)cc3)C2=O)CC1
62	Cc1nnc(-c2cscc2-c2ccc(CN3C(=O)[C@H](NC(=O)CC(C)(C)N)CCc4ccccc43)cc2)o1
2	C[C@H](N)C(=O)N[C@@H](Cc1ccccc1)C(=O)N[C@@H](Cc1cccc2ccccc12)C(=O)N[C@@H](Cc1ccccc1)C(=O)N[C@@H](CCCCN)C(N)=O (H-AF[1Nal]FK-NH2)
7	NCCCC[C@H](NC(=O)[C@H](Cc1ccccc1)NC(=O)C(Cc1cccc2ccccc12)NC(=O)c1cccc(CN)c1)C(N)=O (some centres not stated) (H-[3Amb][ξ1Nal]FK-NH2)

System: not listed separately
Assay: Oral bioavailability determined in rats
Type: ADME, organism-based
Details: rat, in vivo

bioavailability [%]	SMILES
< 5	CC(C)(N)CC(=O)N[C@@H]1CCc2c(ccc3ccccc23)N(Cc2ccc(-c3ccccc3-c3nn[nH]n3)cc2)C1=O
